Test results published in patent US12053777B2, “Devices and methods for detecting cancerous cells” (Academia Sinica, priority 2019, dated 2024).

Assays:
Assay in all cases: Capture of cells by sulfated octasaccharide-coated magnetic beads on microfluidic chip
Assay type in all cases: cell-based
Huh-28 [1] = conditions: for specificity of capture among the eight cell lines: Huh28, a cholangiocarcinoma (CCA) cell line, versus the other cell lines; for capture rate: Huh-28 cells
Experimental: (§1) Preparation of magnetic beads pre-coated with a sulfated octasaccharide. The surface of magnetic beads was respectively coated with the sulfated octasaccharides of the present invention (e.g., HS1, HS12 and etc) with three different concentrations (1 μM, 10 μM and 100 μM). Briefly, sulfated octasaccharides were first incubated with Dynabeads® MyOne™ Streptavidin T1 (˜7-10×10^9 beads/mL, Ø=1 μm, Invitrogen Co., USA) in a volume ratio of 1:10 for 30 min. Then beads were collected by using a magnet for 5 min, followed by discarding the supernatant and washing thrice by using 1-mL deionized (DI) water. Finally, the coated beads were suspended in the equal volume of DI water as the initial volume of Dynabeads® taken from the vial.
(§2) The microfluidic chip constructed above was employed to capture cancerous cells. Briefly, 2×10^5 cells from various types of cancerous cell lines were suspended in 100 μL×phosphate buffered saline (PBS) buffer and loaded into six capture chambers, respectively. 10 μL of different concentrations of sulfated octasaccharides coated beads were manually pipetted in the capture chambers, and gently mixed with cells by the micropumps for 15 min. After incubation, the cells were identified and bound by the magnetic beads pre-coated with the sulfated octasaccharides of formula (I) of the present invention. Then, these captured cells were collected with a magnetic force and washed by 1×PBS buffer. After isolating, the beads and captured cells were suspended in 100 μL 1×PBS buffer, and finally loaded into a hemocytometer to calculate the capture rates.
(§3) In a pre-test, total of 8 cancer cell lines (i.e., MMNK-1, SNU-478, HuCCT-1, Huh-28, KKU-100, HepG2, BxPC3, and HCT8) were respectively loaded into the microsystem and incubated with the magnetic beads, then the captured cells were collected with a magnetic force, and finally loaded into a hemocytometer to calculate the capture rates.
FIG. 2 illustrates that the cancer cells, Huh-28, could be successfully captured by magnetic beads pre-coated with HS 1 of 100 μM. Huh-28 cells before being captured by magnetic beads are depicted in FIG. 2, panel a. After well mixing Huh-28 cells and beads for 30 mins, cells were surrounded by beads (FIG. 2, panel b). The supernatant collection through an isolation process by magnetic force after 30-min incubation is depicted in FIG. 2, panel c.

SNU-478 = SNU-478 cells
Experimental: as §1, §2, §3

HuCCT-1 = conditions: for capture rate: HuCCT-1 cells; for capture rate, in words: metastasized CCA cells (HuCCT-1)
Experimental: as §1, §2, §3

HCT8 = system: HCT8
Experimental: as §1, §2, §3

MMNK-1 = conditions: for capture rate: MMNK-1 cells; for capture rate, in words: normal cells (MINK-1)
Experimental: as §1, §2, §3

BxPC3 = system: BxPC3
Experimental: as §1, §2, §3

KKU-100 = KKU-100 cells
Experimental: as §1, §2, §3

HepG2 = system: HepG2
Experimental: as §1, §2, §3

Huh-28 [2] = conditions: Huh-28 cells; EpCAM-coated beads

## CC(=O)NC1C(O)[C@H](O)C(CO)O[C@@H]1O[C@@H]1C(C(=O)[O-])O[C@@H](O[C@@H]2C(CO)O[C@H](O[C@@H]3C(C(=O)[O-])O[C@@H](O[C@@H]4C(CO)O[C@H](O[C@@H]5C(C(=O)[O-])O[C@@H](O[C@@H]6C(CO)O[C@H](O[C@@H]7C(C(=O)[O-])O[C@@H](OCCCCCN)C(O)C7O)C(NC(C)=O)C6O)C(O)C5O)C(NC(C)=O)C4O)C(O)C3O)C(NC(C)=O)C2O)C(O)C1O.[Na+].[Na+].[Na+].[Na+] (stereo partly drawn) [HS 1, 5-Aminopentyl (2-acetamido-2-deoxy-α-D-glucopyranosyl)-(1→4)-α-L-idopyranosiduronyl-(1→4)-(2-acetamido-2-deoxy-α-D-glucopyranosyl)-(1→4)-α-L-idopyranosiduronyl-(1→4)-(2-acetamido-2-deoxy-α-D-glucopyranosyl)-(1→4)-α-L-idopyranosiduronyl-(1→4)-(2-acetamido-2-deoxy-α-D-glucopyranosyl)-(1→4)-α-L-idopyranosiduronate]
Huh-28 [1]
  specificity of capture among the eight cell lines: highly specific to Huh28
Huh-28 [1]; beads coated with HS at 1 μM
  capture rate: 65 ± 20%
Huh-28 [1]; beads coated with HS at 10 μM
  capture rate: 70 ± 10%
Huh-28 [1]; beads coated with HS at 100 μM
  capture rate: 78 ± 14%
Huh-28 [1]; beads coated with HS at 100 μM, listed as HS1
  capture rate: 78±14%
Huh-28 [1]; beads coated at 100 μM, 30-min incubation, few cells left in supernatant
  capture of Huh-28 cells seen in photographs (FIG. 2): Almost all of the Huh-28 cells were captured and isolated
SNU-478; beads coated with HS at 1 μM
  capture rate: 23 ± 13%
SNU-478; beads coated with HS at 10 μM
  capture rate: 20 ± 8%
SNU-478; beads coated with HS at 100 μM
  capture rate: 22 ± 7%
HuCCT-1; beads coated with HS at 1 μM
  capture rate: 4 ± 1%
HuCCT-1; beads coated with HS at 10 μM
  capture rate: 6 ± 2%
HuCCT-1; beads coated with HS at 100 μM
  capture rate: 4 ± 1%
HuCCT-1
  capture rate, in words: relatively low
HCT8; beads coated with HS at 1 μM
  capture rate: 18 ± 5%
HCT8; beads coated with HS at 10 μM
  capture rate: 14 ± 4%
HCT8; beads coated with HS at 100 μM
  capture rate: 13 ± 3%
MMNK-1; beads coated with HS at 1 μM
  capture rate: 58 ± 11%
MMNK-1; beads coated with HS at 10 μM
  capture rate: 52 ± 6%
MMNK-1; beads coated with HS at 100 μM
  capture rate: 34 ± 5%
MMNK-1
  capture rate, in words: relatively low
BxPC3; beads coated with HS at 1 μM
  capture rate: 15 ± 5%
BxPC3; beads coated with HS at 10 μM
  capture rate: 18 ± 4%
BxPC3; beads coated with HS at 100 μM
  capture rate: 13 ± 7%
KKU-100; beads coated with HS at 1 μM
  capture rate: 40 ± 10%
KKU-100; beads coated with HS at 10 μM
  capture rate: 46 ± 1%
KKU-100; beads coated with HS at 100 μM
  capture rate: 51 ± 2%
HepG2; beads coated with HS at 1 μM
  capture rate: 12 ± 0%
HepG2; beads coated with HS at 10 μM
  capture rate: 16 ± 6%
HepG2; beads coated with HS at 100 μM
  capture rate: 10 ± 4%

## NCCCCCO[C@@H]1O[C@H](C(=O)O)[C@@H](O[C@H]2O[C@H](COS(=O)(=O)O)[C@@H](O[C@@H]3O[C@@H](C(=O)O)[C@@H](O[C@H]4O[C@H](COS(=O)(=O)O)[C@@H](O[C@@H]5O[C@H](C(=O)O)[C@@H](O[C@H]6O[C@H](COS(=O)(=O)O)[C@@H](O[C@@H]7O[C@@H](C(=O)O)[C@@H](O[C@H]8O[C@H](COS(=O)(=O)O)[C@@H](O)[C@H](O)[C@H]8NS(=O)(=O)O)[C@H](O)[C@H]7OS(=O)(=O)O)[C@H](O)[C@H]6NS(=O)(=O)O)[C@H](O)[C@H]5OS(=O)(=O)O)[C@H](O)[C@H]4NS(=O)(=O)O)[C@H](O)[C@H]3OS(=O)(=O)O)[C@H](O)[C@H]2NS(=O)(=O)O)[C@H](O)[C@H]1OS(=O)(=O)O [HS 12]
Huh-28 [1]
  specificity of capture among the eight cell lines: highly specific to Huh28
Huh-28 [1]; beads coated with HS at 1 μM
  capture rate: 66 ± 6%
Huh-28 [1]; beads coated with HS at 10 μM
  capture rate: 67 ± 3%
Huh-28 [1]; beads coated with HS at 100 μM
  capture rate: 73±4%
SNU-478; beads coated with HS at 1 μM
  capture rate: 20 ± 5%
SNU-478; beads coated with HS at 10 μM
  capture rate: 17 ± 7%
SNU-478; beads coated with HS at 100 μM
  capture rate: 16 ± 8%
HuCCT-1; beads coated with HS at 1 μM
  capture rate: 5 ± 1%
HuCCT-1; beads coated with HS at 10 μM
  capture rate: 5 ± 2%
HuCCT-1; beads coated with HS at 100 μM
  capture rate: 4 ± 2%
HuCCT-1
  capture rate, in words: relatively low
HCT8; beads coated with HS at 1 μM
  capture rate: 16 ± 3%
HCT8; beads coated with HS at 10 μM
  capture rate: 13 ± 0%
HCT8; beads coated with HS at 100 μM
  capture rate: 9 ± 2%
MMNK-1; beads coated with HS at 1 μM
  capture rate: 55 ± 7%
MMNK-1; beads coated with HS at 10 μM
  capture rate: 47 ± 20%
MMNK-1; beads coated with HS at 100 μM
  capture rate: 16 ± 8%
MMNK-1
  capture rate, in words: relatively low
BxPC3; beads coated with HS at 1 μM
  capture rate: 16 ± 6%
BxPC3; beads coated with HS at 10 μM
  capture rate: 11 ± 3%
BxPC3; beads coated with HS at 100 μM
  capture rate: 7 ± 3%
KKU-100; beads coated with HS at 1 μM
  capture rate: 42 ± 3%
KKU-100; beads coated with HS at 10 μM
  capture rate: 44 ± 2%
KKU-100; beads coated with HS at 100 μM
  capture rate: 41 ± 11%
HepG2; beads coated with HS at 1 μM
  capture rate: 14 ± 1%
HepG2; beads coated with HS at 10 μM
  capture rate: 11 ± 4%
HepG2; beads coated with HS at 100 μM
  capture rate: 9 ± 6%

B1: EpCAM: epithelial cell adhesion molecule (EpCAM)-coated beads, comparison capture reagent (protein, UniProt P16422 24-314, looked up)
Epithelial cell adhesion …: QEECVCENYKLAVNCFVNNNRQCQCTSVGAQNTVICSKLAAKCLVMKAEMNGSKLGRRAKPEGALQNNDGLYDPDCDESGLFKAKQCNGTSMCWCVNTAGVRRTDKDTEITCSERVRTYWIIIELKHKAREKPYDSKSLRTALQKEITTRYQLDPKFITSILYENNVITIDLVQNSSQKTQNDVDIADVAYYFEKDVKGESLFHSKKMDLTVNGEQLDLDPGQTLIYYVDEKAPEFSMQGLKAGVIAVIVVVVIAVVAGIVVLVISRKKRMAKYEKAEIKEMGEMHRELNA
modifications: coated on beads
notes: epithelial cell adhesion molecule (EpCAM)-coated beads, comparison capture reagent
Huh-28 [2]
  capture rate: 58±19%
SNU-478; EpCAM-coated beads
  capture rate: 74 ± 6%
HuCCT-1; EpCAM-coated beads
  capture rate: 67 ± 11%
HCT8; EpCAM-coated beads
  capture rate: 22 ± 3%
MMNK-1; EpCAM-coated beads
  capture rate: 58 ± 8%
BxPC3; EpCAM-coated beads
  capture rate: 45 ± 6%
KKU-100; EpCAM-coated beads
  capture rate: 51 ± 5%
HepG2; EpCAM-coated beads
  capture rate: 44 ± 7%
